Here are results for two molecules from US4913907A, “Porphycene anti-cancer agents and treatment methods” (Cytopharm, Inc., priority 1988, dated 1990).

Structures are written as SMILES. Where two headings read alike, the source gives them in different places.

One series concerns MS-2 fibrosarcoma. Briefly: Phototherapy of tumor-bearing mice, tumor response. The format is in vivo, Female Balb/c mice. On the procedure:
By the seventh day after transplantation, the tumors had reached a diameter of approximately 0.8 cm.
(§1) Each mouse was intravenously injected with 2 mg./kg. of 2,7,12,17-tetra-n-propylporphycene (TPP) incorporated into small umilamellar liposomes of dipalmitoyl-phosphatidylcholine (DPPC), prepared according to the procedures of Example 2, on the seventh day after transplantation. At this time the diameter of the tumor was approximately 0.8 cm.
(§2) 24 hours after TPP injection, the tumor area was exposed to 600-690 nm. light isolated by optical filtration from the emission of a 250 W quartz-halogen lamp through a set of optical filters (Teclas, Lugano, Switzerland). The light beam was focused into a bundle of optical fibers having an external diameter of 6 mm. The tip of the fiber was kept at a distance of 1 cm from the tissue surface. The lamp was operated at a dose-rate of 230 mW/cm^2, and the total delivered light dose was 150 J/cm^2 or 300 J/cm^2.

The subject of a further series is normal skin. Briefly: Phototherapy, photoinduced damage of irradiated normal skin. Format: in vivo, Female Balb/c mice. On the procedure: as §1, §2
An equal area of normal skin on the left hind leg was irradiated in each mouse immediately after tumor irradiation using an identical protocol.

Series [1] can be described thus: Tissue analysis: recovery of TPP from serum and tissues after injection. The format is in vivo, mice. The following applies: 2 mg/kg; for concentration at 3 h / concentration at 24 h: mouse, iv, average of 6 mice, maximum deviation ±20%; for concentration at 3 h: 3 hours after injection; for concentration at 24 h: 24 hours after injection. On the procedure:
At each of 3 hours and 24 hours after injection, six mice were sacrificed by exposure to ether vapor, and the serum or specific tissue were removed. About 2 mL of blood was taken intracardially and centrifuged for 15 minutes at 3,000 rpm to remove the erythrocytes. The serum was collected, diluted with 2% aqueous SDS and assayed for TPP content spectrophotofluorimetrically (λex =560 nm). The fluorescence emitted in the 580-740 nm interval was converted into TPP concentration by interpolation with a calibration plot.
The tumor and predetermined normal tissues were removed, washed twice with PBS, and a weighed amount of tissue (approximately 200 mg) was finely minced and homogenized in a Potter vessel with 4 mL chloroform. The dispersion was centrifuged at 3,000 rpm for 15 minutes; the supernatant was collected and its TPP content was estimated spectrophotofluorimetrically as described above. Rehomogenization of the sediment under the same conditions gave less than 3% of the TPP extracted in the original step. […]
The recovery of TPP from serum and various tissues of the tumor-bearing mice at 3 hours and 24 hours after injection are shown in Table 1. The samples from each animal were analyzed separately, and are table values represent the average recovery data from the single tissues of 6 mice. The maximum deviation from the reported values was ±20%.

Series [2] can be described thus: Distribution and clearance in a mouse model (statement in the description). Format: in vivo.
The conditions of series [3]: cited from earlier work.
The nature of a further series: Solubility. The format is physicochemical.
Where [4] appears, read: 2 mg/kg i.v., 300 J/cm^2 at 24 hours after TPP injection.
Where [5] appears, read: brain, read-out: Recovery, brain.
The mark [6] stands for this setting: liver, read-out: Recovery, liver.
[7] abbreviates: muscle, read-out: Recovery, muscle.
The mark [8] stands for this setting: tumor, read-out: Recovery, tumor.

As to `CCCC1=Cc2nc1ccc1[nH]c(cc1CCC)c1nc(ccc3[nH]c2cc3CCC)C(CCC)=C1` [TPP, 2,7,12,17-tetra-n-propylporphycene], the “onset of tumor necrosis” value in the series with MS-2 fibrosarcoma (2 mg/kg i.v. in DPPC liposomes, 300 J/cm^2 of 600-690 nm light at 24 hours after TPP injection) is reported as “massive tumor necrosis”. Also, in the series on MS-2 fibrosarcoma (2 mg/kg i.v., 150 J/cm^2 of red light at 24 hours after TPP injection), the tumor necrosis result is “equally deep necrosis, however less extensive”. In addition, the “eschar formation complete within” value in the series on MS-2 fibrosarcoma (setting [4]) is given as no more than 3 days. Also, the “time until depth of necrosis reached bone” value in the series on MS-2 fibrosarcoma (setting [4]) is recorded as “about 7 days”. Also, the “erythema, disappearance” value with normal skin (irradiated TPP-treated mice) is “disappeared within about one week”. Further, the “photoinduced damage at the level of the normal skin” value in the series with normal skin (irradiated TPP-treated mice, most animals, mainly erythema) is on record as “developed some photoinduced damage at the level of the normal skin”. Moreover, the “erythema, diameter” value in the series on normal skin (irradiated TPP-treated mice, generally) is “less than 0.3 cm”. In addition, in the series on normal skin (left hind leg, identical irradiation protocol), the “photosensitivity at the irradiated normal skin” value was “Some photosensitivity was also observed”. Further, the concentration at 3 h in series [1] (setting [5]) was less than 10 ng/g; in series [1] (kidneys, read-out: Recovery, kidneys), 1250 ng/g; in series [1] (setting [6]) it was 13000 ng/g; in series [1] (setting [7]), 140 ng/g; in series [1] (skin, read-out: Recovery, skin), 290 ng/g; in series [1] (setting [8]), 690 ng/g. For the same molecule, the concentration at 24 h in series [1] (setting [5]) is less than 10 ng/g; in series [1] (setting [6]), 11100 ng/g; in series [1] (setting [7]), 90 ng/g; in series [1] (serum, read-out: Recovery, serum) it was 25600 ng/mL; in series [1] (skin, read-out: Recovery, skin), 440 ng/g; in series [1] (spleen, read-out: Recovery, spleen), 2940 ng/g. For the same molecule, in series [1] (setting [8]), the concentration at 24 h amounted to 1500 ng/g. Also, in series [1] (tumor tissue, time not stated), the “recovery from the tumor” value is recorded as “approximately 1 μg/g”. In addition, the “tumor uptake as compared to skin or muscle tissue” value in series [2] (24 hours post-injection) was “concentrate preferentially in tumor tissue as compared to skin or muscle tissue”. Also, the drug clearance route result in series [2] (mouse model) is reported as “via the liver rather than by the kidneys”. The “uptake by the brain” value in series [2] (mouse model) is “little or no porphycene uptake by the brain”. Further, in series [3], the “absorption above 620 nm” value is recorded as “high absorption above 620 nm”.
Regarding `C1=Cc2nc1ccc1ccc([nH]1)c1nc(ccc3ccc2[nH]3)C=C1` [porphycene], the “solubility in water and pharmaceutically suitable solvents” value in the series “Solubility” was “not soluble in water and pharmaceutically suitable solvents”. For the same molecule, the “absorption above 620 nm” value in series [3] is on record as “high absorption above 620 nm”.
